In ChEMBL document CHEMBL4507276 (2021):

Assays:
[1] = tested on: Serine/threonine-protein kinase B-raf (Homo sapiens), P15056 [V600E]; conditions: Compound concentration 1000.0 nM
[2] = biological target: Cyclin-dependent kinase 11B (Homo sapiens) (UniProt P21127); conditions: Compound concentration 1000.0 nM
[3] = biological target: Serine/threonine-protein kinase Chk2 (Homo sapiens) (UniProt O96017); conditions: Compound concentration 1000.0 nM
[4] = biological target: Receptor tyrosine-protein kinase erbB-2 (Homo sapiens) (UniProt P04626); conditions: Compound concentration 1000.0 nM
[5] = biological target: Vascular endothelial growth factor receptor 1 (Homo sapiens) (UniProt P17948); conditions: Compound concentration 1000.0 nM
[6] = biological target: Tyrosine-protein kinase Lck (Homo sapiens) (UniProt P06239); conditions: Compound concentration 1000.0 nM
[7] = biological target: T1, Tyrosine-protein kinase Mer (Homo sapiens) (UniProt Q12866); conditions: Compound concentration 1000.0 nM
T1 sequence (whole entry): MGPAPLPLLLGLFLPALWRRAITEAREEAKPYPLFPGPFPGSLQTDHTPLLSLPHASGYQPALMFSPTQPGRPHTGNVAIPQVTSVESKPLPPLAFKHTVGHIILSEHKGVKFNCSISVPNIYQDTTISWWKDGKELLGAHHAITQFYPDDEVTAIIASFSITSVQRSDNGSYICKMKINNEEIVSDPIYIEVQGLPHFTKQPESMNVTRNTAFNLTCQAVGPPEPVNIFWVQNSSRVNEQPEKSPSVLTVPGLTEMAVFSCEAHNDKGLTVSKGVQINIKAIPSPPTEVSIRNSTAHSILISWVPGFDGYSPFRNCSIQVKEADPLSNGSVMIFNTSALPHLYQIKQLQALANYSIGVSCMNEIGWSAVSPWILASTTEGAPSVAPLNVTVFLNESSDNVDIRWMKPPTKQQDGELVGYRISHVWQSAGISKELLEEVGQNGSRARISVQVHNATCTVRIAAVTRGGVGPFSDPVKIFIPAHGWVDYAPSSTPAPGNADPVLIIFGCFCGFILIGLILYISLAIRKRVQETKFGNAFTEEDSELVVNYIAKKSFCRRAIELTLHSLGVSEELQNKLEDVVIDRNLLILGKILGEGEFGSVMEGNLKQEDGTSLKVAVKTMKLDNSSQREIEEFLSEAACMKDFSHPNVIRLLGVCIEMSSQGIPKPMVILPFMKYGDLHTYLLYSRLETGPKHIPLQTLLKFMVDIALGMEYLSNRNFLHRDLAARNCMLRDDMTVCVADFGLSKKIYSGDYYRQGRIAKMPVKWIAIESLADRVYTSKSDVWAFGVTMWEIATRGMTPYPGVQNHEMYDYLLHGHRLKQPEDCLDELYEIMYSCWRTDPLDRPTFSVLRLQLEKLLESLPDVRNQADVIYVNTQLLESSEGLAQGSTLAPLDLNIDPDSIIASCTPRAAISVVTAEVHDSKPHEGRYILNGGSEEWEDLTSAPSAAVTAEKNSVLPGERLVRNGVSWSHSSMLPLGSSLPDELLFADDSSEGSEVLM

[8] = biological target: MAP kinase-interacting serine/threonine-protein kinase 1 (Homo sapiens) (UniProt Q9BUB5); conditions: Compound concentration 1000.0 nM
[9] = biological target: T2, Serine/threonine-protein kinase Nek9 (Homo sapiens) (UniProt Q8TD19); conditions: Compound concentration 1000.0 nM
T2 sequence (whole entry): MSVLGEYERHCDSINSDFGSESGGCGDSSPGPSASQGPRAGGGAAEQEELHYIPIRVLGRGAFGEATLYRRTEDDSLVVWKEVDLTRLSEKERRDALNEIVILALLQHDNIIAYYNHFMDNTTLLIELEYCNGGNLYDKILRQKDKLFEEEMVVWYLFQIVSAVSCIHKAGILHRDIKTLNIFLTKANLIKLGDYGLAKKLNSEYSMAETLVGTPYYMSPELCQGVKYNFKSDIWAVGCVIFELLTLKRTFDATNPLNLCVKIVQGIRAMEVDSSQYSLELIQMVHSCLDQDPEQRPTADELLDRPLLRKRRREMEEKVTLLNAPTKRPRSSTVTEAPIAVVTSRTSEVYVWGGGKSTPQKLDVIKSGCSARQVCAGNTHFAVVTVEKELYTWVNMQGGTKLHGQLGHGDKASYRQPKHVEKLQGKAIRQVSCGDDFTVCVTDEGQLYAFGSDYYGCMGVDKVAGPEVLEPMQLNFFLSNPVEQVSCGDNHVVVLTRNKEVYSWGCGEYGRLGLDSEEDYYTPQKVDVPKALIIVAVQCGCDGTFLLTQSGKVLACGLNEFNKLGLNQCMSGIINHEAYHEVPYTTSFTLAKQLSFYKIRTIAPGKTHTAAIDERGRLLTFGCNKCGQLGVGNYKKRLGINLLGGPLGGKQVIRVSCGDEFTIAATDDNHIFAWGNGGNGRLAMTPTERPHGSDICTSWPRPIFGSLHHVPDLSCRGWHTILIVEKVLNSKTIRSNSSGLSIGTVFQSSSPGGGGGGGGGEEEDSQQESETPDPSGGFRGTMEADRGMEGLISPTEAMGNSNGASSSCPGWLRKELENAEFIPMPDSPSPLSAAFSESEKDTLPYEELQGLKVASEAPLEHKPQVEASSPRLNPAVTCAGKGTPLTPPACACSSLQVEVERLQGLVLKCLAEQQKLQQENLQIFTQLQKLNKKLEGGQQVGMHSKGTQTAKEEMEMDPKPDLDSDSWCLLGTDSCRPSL

[10] = biological target: Serine/threonine-protein kinase N1 (Homo sapiens) (UniProt Q16512); conditions: Compound concentration 1000.0 nM
[11] = biological target: Serine/threonine-protein kinase SIK2 (Homo sapiens) (UniProt Q9H0K1); conditions: Compound concentration 1000.0 nM
[12] = biological target: NT-3 growth factor receptor (Homo sapiens) (UniProt Q16288); conditions: Compound concentration 1000.0 nM
[13] = biological target: Serine/threonine-protein kinase WNK3 (Homo sapiens) (UniProt Q9BYP7); conditions: Compound concentration 1000.0 nM
[14] = biological target: 5-hydroxytryptamine receptor 1D (Homo sapiens) (UniProt P28221); conditions: Compound concentration 10.0 uM
[15] = biological target: Glucagon receptor (Homo sapiens) (UniProt P47871); assay: GLUCAGONH_AGON Cerep selectivity data (BI); conditions: filed as agonist, Compound concentration 20.0 uM
Homo sapiens = organism: Homo sapiens; assay: HIV-1/H Cerep selectivity data (BI); conditions: Compound concentration 20.0 uM

Sequence of Receptor tyrosine-protein kinase erbB-2 (Homo sapiens) (P04626 whole entry): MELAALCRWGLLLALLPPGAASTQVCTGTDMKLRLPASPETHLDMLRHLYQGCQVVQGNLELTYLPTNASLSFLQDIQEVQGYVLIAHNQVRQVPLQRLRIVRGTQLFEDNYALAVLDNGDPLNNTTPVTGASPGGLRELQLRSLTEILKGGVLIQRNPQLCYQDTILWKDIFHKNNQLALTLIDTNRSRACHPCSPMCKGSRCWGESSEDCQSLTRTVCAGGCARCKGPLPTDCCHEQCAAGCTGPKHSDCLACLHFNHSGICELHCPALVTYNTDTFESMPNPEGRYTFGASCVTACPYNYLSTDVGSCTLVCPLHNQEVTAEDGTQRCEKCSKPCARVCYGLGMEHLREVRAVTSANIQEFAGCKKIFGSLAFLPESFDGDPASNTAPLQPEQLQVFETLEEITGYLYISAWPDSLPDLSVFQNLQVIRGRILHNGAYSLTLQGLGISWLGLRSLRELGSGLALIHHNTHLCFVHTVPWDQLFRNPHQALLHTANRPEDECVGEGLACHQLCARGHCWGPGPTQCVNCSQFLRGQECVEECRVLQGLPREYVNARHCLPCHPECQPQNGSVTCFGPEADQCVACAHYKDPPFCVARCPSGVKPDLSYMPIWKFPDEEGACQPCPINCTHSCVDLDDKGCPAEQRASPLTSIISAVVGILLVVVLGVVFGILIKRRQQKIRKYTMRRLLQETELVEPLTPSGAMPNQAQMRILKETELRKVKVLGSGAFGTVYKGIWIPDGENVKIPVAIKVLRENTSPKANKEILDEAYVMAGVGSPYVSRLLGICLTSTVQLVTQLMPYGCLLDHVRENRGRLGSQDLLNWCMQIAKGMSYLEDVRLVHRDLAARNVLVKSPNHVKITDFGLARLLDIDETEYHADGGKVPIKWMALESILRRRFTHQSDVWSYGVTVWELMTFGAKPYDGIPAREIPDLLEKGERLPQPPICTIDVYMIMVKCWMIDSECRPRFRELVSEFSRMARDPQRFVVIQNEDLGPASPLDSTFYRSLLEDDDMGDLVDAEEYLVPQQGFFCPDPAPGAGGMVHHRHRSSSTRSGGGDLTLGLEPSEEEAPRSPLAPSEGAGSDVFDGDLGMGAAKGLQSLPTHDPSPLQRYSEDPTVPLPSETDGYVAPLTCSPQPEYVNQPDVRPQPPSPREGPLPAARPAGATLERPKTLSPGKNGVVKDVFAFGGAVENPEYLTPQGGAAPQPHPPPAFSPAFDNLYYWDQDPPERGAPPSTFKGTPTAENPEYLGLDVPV
Sequence of Cyclin-dependent kinase 11B (Homo sapiens) (P21127 whole entry): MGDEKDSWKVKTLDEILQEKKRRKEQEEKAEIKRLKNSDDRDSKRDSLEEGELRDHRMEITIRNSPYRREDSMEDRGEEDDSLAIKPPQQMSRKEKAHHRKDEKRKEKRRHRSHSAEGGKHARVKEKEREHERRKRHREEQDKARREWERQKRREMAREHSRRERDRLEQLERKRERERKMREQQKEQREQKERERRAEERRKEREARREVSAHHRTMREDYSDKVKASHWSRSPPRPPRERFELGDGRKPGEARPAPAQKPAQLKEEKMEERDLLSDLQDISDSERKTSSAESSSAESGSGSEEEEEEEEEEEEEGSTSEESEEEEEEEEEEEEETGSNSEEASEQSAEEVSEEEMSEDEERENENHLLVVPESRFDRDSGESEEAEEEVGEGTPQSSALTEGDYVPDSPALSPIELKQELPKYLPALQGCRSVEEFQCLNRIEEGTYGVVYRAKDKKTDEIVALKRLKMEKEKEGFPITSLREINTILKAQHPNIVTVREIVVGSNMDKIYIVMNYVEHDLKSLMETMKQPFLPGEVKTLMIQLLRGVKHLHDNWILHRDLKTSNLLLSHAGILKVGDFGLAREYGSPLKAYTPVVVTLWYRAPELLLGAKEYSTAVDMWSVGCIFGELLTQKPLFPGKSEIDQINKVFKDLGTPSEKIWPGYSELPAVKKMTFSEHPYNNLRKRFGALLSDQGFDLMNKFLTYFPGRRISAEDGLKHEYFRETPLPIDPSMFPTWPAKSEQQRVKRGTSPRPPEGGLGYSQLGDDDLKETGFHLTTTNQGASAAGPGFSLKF
Sequence of Serine/threonine-protein kinase N1 (Homo sapiens) (Q16512 2-942 limits assumed): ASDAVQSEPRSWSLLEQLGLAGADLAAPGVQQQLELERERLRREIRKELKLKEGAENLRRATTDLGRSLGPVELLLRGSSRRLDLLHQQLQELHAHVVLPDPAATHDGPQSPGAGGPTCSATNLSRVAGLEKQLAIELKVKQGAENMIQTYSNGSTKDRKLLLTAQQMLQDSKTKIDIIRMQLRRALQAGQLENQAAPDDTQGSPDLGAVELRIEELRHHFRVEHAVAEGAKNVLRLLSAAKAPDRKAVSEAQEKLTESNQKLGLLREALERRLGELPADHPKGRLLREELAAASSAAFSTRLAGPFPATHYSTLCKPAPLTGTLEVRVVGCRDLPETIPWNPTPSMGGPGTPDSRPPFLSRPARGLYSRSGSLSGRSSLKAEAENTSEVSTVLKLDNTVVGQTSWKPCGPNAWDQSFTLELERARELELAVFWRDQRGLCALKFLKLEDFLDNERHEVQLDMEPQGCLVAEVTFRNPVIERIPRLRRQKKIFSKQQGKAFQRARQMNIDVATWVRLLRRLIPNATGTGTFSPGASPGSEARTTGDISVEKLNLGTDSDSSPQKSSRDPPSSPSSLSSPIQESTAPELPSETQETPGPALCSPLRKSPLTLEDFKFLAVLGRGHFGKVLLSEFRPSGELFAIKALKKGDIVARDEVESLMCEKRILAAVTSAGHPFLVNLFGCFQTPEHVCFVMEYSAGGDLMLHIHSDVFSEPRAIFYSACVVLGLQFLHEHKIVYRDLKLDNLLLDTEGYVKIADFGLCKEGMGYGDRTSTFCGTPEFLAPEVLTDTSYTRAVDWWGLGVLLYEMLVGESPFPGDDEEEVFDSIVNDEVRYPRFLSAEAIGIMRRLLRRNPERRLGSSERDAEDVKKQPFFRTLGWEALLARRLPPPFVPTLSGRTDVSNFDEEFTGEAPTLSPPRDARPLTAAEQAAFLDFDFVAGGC
Sequence of Serine/threonine-protein kinase B-raf (Homo sapiens), P15056 [V600E] (P15056 whole entry V600E): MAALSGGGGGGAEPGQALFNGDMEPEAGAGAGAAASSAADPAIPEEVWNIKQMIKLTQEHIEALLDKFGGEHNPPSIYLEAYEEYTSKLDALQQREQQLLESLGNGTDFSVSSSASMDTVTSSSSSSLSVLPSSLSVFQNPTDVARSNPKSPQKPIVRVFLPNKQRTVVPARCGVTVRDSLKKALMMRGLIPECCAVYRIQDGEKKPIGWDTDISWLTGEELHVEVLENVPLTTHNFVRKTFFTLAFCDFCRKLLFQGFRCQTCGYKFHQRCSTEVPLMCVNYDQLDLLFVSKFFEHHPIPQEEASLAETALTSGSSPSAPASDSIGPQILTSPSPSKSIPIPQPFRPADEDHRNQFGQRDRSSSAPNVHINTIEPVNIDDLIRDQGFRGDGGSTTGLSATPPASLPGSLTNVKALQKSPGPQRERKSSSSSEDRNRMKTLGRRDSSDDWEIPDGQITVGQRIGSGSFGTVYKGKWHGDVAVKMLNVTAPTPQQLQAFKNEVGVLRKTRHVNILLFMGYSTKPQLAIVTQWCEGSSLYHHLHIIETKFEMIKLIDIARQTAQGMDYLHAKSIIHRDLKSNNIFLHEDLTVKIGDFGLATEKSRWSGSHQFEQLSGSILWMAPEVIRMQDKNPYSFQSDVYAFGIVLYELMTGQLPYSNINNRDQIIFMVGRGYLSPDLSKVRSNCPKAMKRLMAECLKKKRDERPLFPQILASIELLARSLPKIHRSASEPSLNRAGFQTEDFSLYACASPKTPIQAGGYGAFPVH
Sequence of 5-hydroxytryptamine receptor 1D (Homo sapiens) (P28221 whole entry): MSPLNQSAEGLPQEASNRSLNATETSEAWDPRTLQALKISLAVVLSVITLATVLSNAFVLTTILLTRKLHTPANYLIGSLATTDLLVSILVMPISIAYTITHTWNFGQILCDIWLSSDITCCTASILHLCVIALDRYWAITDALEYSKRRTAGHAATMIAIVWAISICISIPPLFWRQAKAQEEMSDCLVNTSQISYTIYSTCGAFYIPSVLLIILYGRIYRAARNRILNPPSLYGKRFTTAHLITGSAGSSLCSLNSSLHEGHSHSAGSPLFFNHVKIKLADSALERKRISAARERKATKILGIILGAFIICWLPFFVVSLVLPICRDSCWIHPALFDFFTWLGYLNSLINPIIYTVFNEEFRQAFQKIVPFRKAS
Sequence of Serine/threonine-protein kinase Chk2 (Homo sapiens) (O96017 whole entry): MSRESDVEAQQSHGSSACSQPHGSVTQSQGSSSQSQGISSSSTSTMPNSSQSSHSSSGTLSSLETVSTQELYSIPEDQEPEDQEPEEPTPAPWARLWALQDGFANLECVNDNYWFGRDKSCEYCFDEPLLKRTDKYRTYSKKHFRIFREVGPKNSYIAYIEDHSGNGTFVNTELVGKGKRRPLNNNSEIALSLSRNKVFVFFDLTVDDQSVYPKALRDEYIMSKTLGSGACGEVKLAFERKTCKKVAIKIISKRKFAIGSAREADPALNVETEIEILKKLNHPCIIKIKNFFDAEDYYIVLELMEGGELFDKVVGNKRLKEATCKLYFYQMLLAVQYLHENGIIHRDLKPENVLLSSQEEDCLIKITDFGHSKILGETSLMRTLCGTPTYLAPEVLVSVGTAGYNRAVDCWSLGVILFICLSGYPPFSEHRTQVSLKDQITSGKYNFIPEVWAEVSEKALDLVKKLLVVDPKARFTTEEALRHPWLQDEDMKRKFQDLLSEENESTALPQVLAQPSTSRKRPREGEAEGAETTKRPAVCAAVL

CN(C)C(=O)Cn1cc(-c2nc(C3(c4ccc(-c5cnc(N)nc5)cc4)CC3)no2)cn1 [BI 0153]
inactive: residual activity [1] 87% | residual activity [2] 96% | residual activity [3] 100% | residual activity [4] 80% | residual activity [5] 100% | residual activity [6] 83% | residual activity [7] 88% | residual activity [8] 85% | residual activity [9] 100% | residual activity [10] 84% | residual activity [11] 100% | residual activity [12] 97% | residual activity [13] 87% | inhibition [14] -3.06%

CN(C)C(=O)Cn1cc(-c2nc([C@@](C)(c3ccc(-c4cnc(N)nc4)cc3)C3CC3)no2)cn1 [BI 665915]
inactive: residual activity [15] 107% | residual activity (Homo sapiens) 100% | residual activity [1] 89% | residual activity [2] 79% | residual activity [3] 100% | residual activity [4] 100% | residual activity [5] 100% | residual activity [6] 86% | residual activity [7] 100% | residual activity [8] 85% | residual activity [9] 95% | residual activity [10] 99% | residual activity [11] 93% | residual activity [13] 76% | inhibition [14] -5.95%
